≈ marks a conversion by molar mass, not a printed value. Read-outs that look alike come from different tables or passages of the source.
Tests used:
[1] = system: N. gonorrhoeae ATCC 49226; assay: MIC, CLSI broth microdilution; assay type: cell-based, Neisseria gonorrhoeae; conditions: Neisseria gonorrhoeae
[2] = target: T1, PBP1 (Neisseria gonorrhoeae, UniProt O05131, A375T/F666S); assay: PBP-binding assay (Bocillin FL) in isolated membrane preparations; design: species or system Neisseria gonorrhoeae ATCC 49226
T1 construct: endogenous in cells; host or cells: N. gonorrhoeae ATCC 49226, isolated membrane preparation
Excerpt: (§1) Bacterial membranes were collected by ultracentrifugation.

[3] = system: N. gonorrhoeae; conditions: single 2-g dose; isolates with an MIC above 0.5 mg/L; cited from earlier work
[4] = target: T2, PBP1 (Neisseria gonorrhoeae, UniProt O05131); assay: PBP-binding assay (Bocillin FL) in isolated membrane preparations; conditions: strain ATCC 19424
T2 construct: endogenous in cells; host or cells: N. gonorrhoeae ATCC 19424, isolated membrane preparation
Excerpt: as §1

[5] = system: N. gonorrhoeae ATCC 19424; assay: MIC, CLSI broth microdilution; assay type: cell-based; conditions: Neisseria gonorrhoeae
[6] = target: T3, PBP3 (Neisseria gonorrhoeae, UniProt Q5FAB9); conditions: read-out: IC50 PBP3; strain ATCC 19424; membrane preparation, 30 min drug then Bocillin FL
T3 sequence (Q5FAB9 22-469): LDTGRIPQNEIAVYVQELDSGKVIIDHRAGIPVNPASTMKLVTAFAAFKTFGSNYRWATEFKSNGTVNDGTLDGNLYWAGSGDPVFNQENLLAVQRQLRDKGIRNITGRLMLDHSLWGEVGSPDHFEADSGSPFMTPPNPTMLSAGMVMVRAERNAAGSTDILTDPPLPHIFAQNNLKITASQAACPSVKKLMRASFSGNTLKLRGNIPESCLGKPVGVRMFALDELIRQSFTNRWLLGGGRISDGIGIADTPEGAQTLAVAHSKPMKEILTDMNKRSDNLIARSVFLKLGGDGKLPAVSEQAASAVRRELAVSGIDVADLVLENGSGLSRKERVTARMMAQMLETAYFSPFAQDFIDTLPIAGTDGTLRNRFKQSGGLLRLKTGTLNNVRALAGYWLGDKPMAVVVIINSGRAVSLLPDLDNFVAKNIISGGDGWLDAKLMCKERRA

[7] = target: T4, PBP2 (Neisseria gonorrhoeae, UniProt P08149, H541N); assay: PBP-binding assay (Bocillin FL) in isolated membrane preparations; design: species or system Neisseria gonorrhoeae ATCC 19424
T4 construct: endogenous in cells; host or cells: N. gonorrhoeae ATCC 19424, isolated membrane preparation

[8] = target: T5, PBP2 (Neisseria gonorrhoeae, UniProt P08149, A510V/A516G/A574V/F504L/H541N/I556V/I566V/K555Q/P552V); assay: biochemical; assay type: binding, Neisseria gonorrhoeae ATCC 49226
T5 construct: endogenous in cells; host or cells: N. gonorrhoeae ATCC 49226, isolated membrane preparation

[9] = target: T6, PBP1, PBP2 and PBP3 (Neisseria gonorrhoeae, UniProt Q5FAB9); assay type: binding, Neisseria gonorrhoeae ATCC 19424; conditions: read-out: min. IC50 (minimum observed IC50 value); strain ATCC 19424
T6 sequence (Q5FAB9 22-469): T3 sequence (Q5FAB9 22-469)

[10] = target: T3, PBP3; conditions: read-out: IC50 PBP3; strain ATCC 49226; membrane preparation, 30 min drug then Bocillin FL
[11] = target: T6, PBP1, PBP2 and PBP3; assay type: binding, Neisseria gonorrhoeae ATCC 49226; conditions: read-out: min. IC50 (minimum observed IC50 value); strain ATCC 49226
[12] = system: PBP1, PBP2 and PBP3; assay type: binding, Neisseria gonorrhoeae ATCC 19424; conditions: strain ATCC 19424
[13] = target: PBP1, PBP2 and PBP3 (Neisseria gonorrhoeae, UniProt P08149, H541N); assay type: binding, Neisseria gonorrhoeae ATCC 19424; conditions: read-out: min. IC50 (minimum observed IC50 value); strain ATCC 19424
[14] = system: PBP1, PBP2 and PBP3; assay type: binding, Neisseria gonorrhoeae ATCC 49226; conditions: strain ATCC 49226
[15] = ATCC49226, strain ATCC 49226, read-out: MIC (Table S1)
[16] = IC50 PBP1, strain ATCC 49226, membrane preparation, 30 min drug then Bocillin FL
[17] = membrane preparation, 30 min drug then Bocillin FL, read-out: IC50 PBP1 (converted)
[18] = ATCC19424, strain ATCC 19424, read-out: MIC
[19] = ATCC19424, strain ATCC 19424, read-out: MIC (Table S1)
[20] = ATCC49226, read-out: MIC (Table S1)
[21] = IC50 PBP1 (Table S1), strain ATCC 49226
[22] = IC50 PBP2 (Table S1), strain ATCC 19424
[23] = IC50 PBP2, strain ATCC 19424, membrane preparation, 30 min drug then Bocillin FL
[24] = IC50 PBP2 (Table S1), strain ATCC 49226
[25] = IC50 PBP2, strain ATCC 49226, membrane preparation, 30 min drug then Bocillin FL
[26] = ATCC49226, strain ATCC 49226, read-out: MIC
[27] = ATCC19424, read-out: MIC (Table S1)

SMILES | MIC ([1]; ATCC49226) | MIC [1, 15] | IC50 [2, 16] | IC50 [4, 17] | MIC [5, 18] | MIC [5, 19] | MIC [1, 20] | IC50 [6] | IC50 [2, 21] | IC50 [7, 22] | IC50 [7, 23] | IC50 [8, 24] | IC50 [8, 25] | IC50 [9] | IC50 [10] | IC50 [11] | MIC [1, 26] | min. IC50 (minimum observed IC50 value) [12] | MIC ([5]; ATCC19424) | MIC [5, 27] | further results
C[C@H]1[C@H](NC(=O)/C(=N\OC(C)(C)C(=O)O)c2csc(N)n2)C(=O)N1S(=O)(=O)O [ATM, aztreonam] | 0.125 µg/mL (≈ 0.287 µM) | 0.25 µg/mL (≈ 0.574 µM) | > 4.59 µM | > 4.59 µM | 0.032 µg/mL (≈ 0.0735 µM) | 0.032 µg/mL (≈ 0.0735 µM) |  |  |  |  |  |  |  |  |  |  |  |  |  |  | cure rate [3]: 50%
NC(=O)[C@@H]1CC[C@@H]2CN1C(=O)N2OS(=O)(=O)O [AVI, avibactam] | > 256 µg/mL |  | > 965 µM | > 1930 µM |  | 128 µg/mL (≈ 483 µM) | 512 µg/mL (≈ 1930 µM) | 8.78 µM | > 1930 µM | 442 µM | 441 µM | > 1930 µM | > 965 µM | 8.78 µM | 20.4 µM | 20.4 µM |  |  |  |  | 
C[C@@H](O)[C@H]1C(=O)N2C(C(=O)O)=C(S[C@@H]3CN[C@H](CNS(N)(=O)=O)C3)[C@H](C)[C@H]12 [DOR, doripenem] |  | 0.032 µg/mL (≈ 0.0761 µM) | 2.57 µM | 2.69 µM | 0.004 µg/mL (≈ 0.00951 µM) | 0.004 µg/mL (≈ 0.00951 µM) |  |  |  |  | 0.143 µM | 0.214 µM | 0.19 µM |  |  |  | 0.032 µg/mL (≈ 0.0761 µM) | 0.01 µg/mL |  |  | 
CC1(C)S[C@@H]2[C@H](NC(=O)Cc3ccccc3)C(=O)N2[C@H]1C(=O)O [PenG, penicillin G] |  | 0.125 µg/mL (≈ 0.374 µM) | > 5.98 µM | 5.65 µM | 0.064 µg/mL (≈ 0.191 µM) | 0.063 µg/mL (≈ 0.188 µM) |  | 0.0598 µM |  |  | 0.15 µM |  | 0.778 µM |  | 0.0299 µM | 0.0299 µM | 0.125 µg/mL (≈ 0.374 µM) | 0.02 µg/mL |  |  | 
O=C(NC1CCNCC1)[C@@H]1CC[C@@H]2CN1C(=O)N2OS(=O)(=O)O [REL, relebactam] | > 256 µg/mL |  | > 735 µM | > 1470 µM |  |  | 512 µg/mL (≈ 1470 µM) | 3.65 µM | > 1470 µM | 1470 µM | > 1470 µM | > 1470 µM | > 735 µM | 3.65 µM | 3.76 µM | 3.76 µM |  |  | > 256 µg/mL | 512 µg/mL (≈ 1470 µM) | 
CC1(C)[C@H](C(=O)O)N2C(=O)C[C@H]2S1(=O)=O [SUL, sulbactam] | 4 µg/mL (≈ 17.1 µM) |  | 870 µM | 236 µM |  |  | 4 µg/mL (≈ 17.1 µM) | 39.9 µM | 871 µM |  | 5.06 µM |  | 25.8 µM |  | 27.3 µM |  |  |  | 0.25 µg/mL (≈ 1.07 µM) | 0.25 µg/mL (≈ 1.07 µM) | IC50 ([4]; read-out: IC50 PBP1 (Table S1) (converted)): 238 µM; IC50 [13]: 5.06 µM; min. IC50 (minimum observed IC50 value) [14]: 6.02 µg/mL

— paper PMC10269775, “Penicillin-Binding Protein Occupancy Dataset for 18 β-Lactams and 4 β-Lactamase Inhibitors in Neisseria gonorrhoeae” (Microbiology Spectrum, 2023)
